The results in this text go back to patent US11925629B2, “Heterocyclic inhibitors of ERK1 and ERK2 and their use in the treatment of cancer” (Asana Biosciences, LLC, priority 2015, dated 2024).

Holding throughout (type): cell-based, human
For assay [1], the system named is HT-29 (colorectal carcinoma, B-RafV600E) cells. In words: Cell proliferation (Alamar Blue) assay, HT-29. As to conditions: Homo sapiens, HT-29, HT29 cells. The gist of the method:
(§1)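 Cells seeded at 5000/well and allowed 16-24 h at 37° C./5% CO2, then exposed to 3-fold serial dilutions (typically 0.0005 to 10 uM) for 72 h. Viability read by Alamar Blue (1×, 1-3 h) fluorescence at 540/590 nm; IC50 from variable-slope sigmoidal fit.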
(Alamar Blue is a resazurin reagent that responds to reducing activity.)

Assay [2] concerns HCT116 (colorectal carcinoma, K Ras G13D) cells. In words: Cell proliferation (Alamar Blue) assay, HCT116. As to conditions: Homo sapiens, HCT-116, HCT116 cells. Summed up: as §1
The subject of assay [3] is phosphorylation of RSK1(S380) (the downstream target of ERK1/2). Kind of assay: Phospho-RSK1(S380) ELISA assay in HT-29 cells. As to conditions: Homo sapiens, HT-29, HT29 cells, read-out: Mechanistic Cell Assay RSK1 Phos HT29 IC50. Summed up:
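IC50 values derive from a variable-slope sigmoidal fit of sandwich-ELISA signal (450 nm) for RSK1 Ser380 phosphorylation. The cells were B-RafV600E HT-29 colorectal line, exposed to serially diluted compound for 2 h after overnight seeding, then lysed at 4° C.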
(ELISA stands for enzyme-linked immunosorbent assay.)

Read-outs that look alike come from different tables or passages of the source. Some results are limits rather than exact numbers.

By IC50 is commonly meant the point on the concentration scale where inhibition reaches its midpoint. In the case of `O=C(NC(CO)c1ccccc1)c1ccn(-c2ccnc(Nc3ccc4c(c3)OCO4)c2)c1` (stereo not drawn) [Example 76, 1-(2-(benzo[d][1,3]dioxol-5-ylamino)pyridin-4-yl)-N-(2-hydroxy-1-phenylethyl)-1H-pyrrole-3-carboxamide], the figures for the half-inhibitory concentration (IC50) in assay [1], in assay [2] and in assay [3] (phospho-RSK1(S380)) were 500 to 2500 nM, above 2500 nM and 250 to 500 nM, respectively.
With `Cc1cnc(NC2CCOCC2)nc1-n1cnc(C(=O)NC(C)(C)c2cccc(Cl)c2CO)c1` [Example 341, N-(2-(3-chloro-2-(hydroxymethyl)phenyl)propan-2-yl)-1-(5-methyl-2-((tetrahydro-2H-pyran-4-yl)amino)pyrimidin-4-yl)-1H-imidazole-4-], the IC50 lay within 500 to 2500 nM in assay [1], 500 to 2500 nM in assay [2] and 250 to 500 nM in assay [3].
For `Cc1cnc(NC2CCOC2)nc1-n1ccc(C(=O)N[C@H](CO)c2cccc(Cl)c2)c1` (stereo partly drawn) [Example 151, N-((S)-1-(3-chlorophenyl)-2-hydroxy-ethyl)-1-(5-methyl-2-((tetrahydro-furan-3-yl)amino)pyrimidin-4-yl)-1H-pyrrole-3-carboxamide], the half-maximal inhibitory concentration (IC50) in assay [1] is at most 100 nM; in assay [2] it was 500 to 2500 nM; in assay [3] (phospho-RSK1(S380)), 100 to 250 nM.
Taken in the same sequence, the figures for `Cc1cnc(NC2CCOCC2)nc1-n1cnc(C(=O)N[C@H](CO)c2cccc(Cl)c2)c1` [Compound 211, (S)—N-(1-(3-chlorophenyl)-2-hydroxyethyl)-1-(5-methyl-2-((tetrahydro-2H-pyran-4-yl)amino)pyrimidin-4-yl)-1H-imidazole-4-carboxamide] were at most 100 nM, 100 to 250 nM and at most 100 nM.
Turning to `Cc1cnc(Nc2ccc3c(c2)OC(F)(F)O3)nc1-n1ccc(C(=O)NC(CO)c2ccccc2)c1` (stereo not drawn) [Example 63, 1-(2-((2,2-difluoro-benzo[d][1,3]dioxol-5-yl)amino)-5-methyl-pyrimidin-4-yl)-N-(2-hydroxy-1-phenylethyl)-1H-pyrrole-3-carboxamide], the IC50 in assay [1] is 500 to 2500 nM; in assay [2] it was 500 to 2500 nM; in assay [3] (phospho-RSK1(S380)), 250 to 500 nM.
For the compound `Cc1cnc(Nc2ccc3c(c2)OC(F)(F)O3)nc1-n1ccc(C(=O)NC(CN)c2cccc(Cl)c2)c1` (stereo not drawn) [Cmpd 136, N-(2-amino-1-(3-chloro-phenyl)ethyl)-1-(2-((2,2-difluoro-benzo[d][1,3]dioxol-5-yl)amino)-5-methyl-pyrimidin-4-yl)-1H-pyrrole-3-carboxamide], the IC50 in assay [1] was 500 to 2500 nM; in assay [2] it was 500 to 2500 nM; in assay [3] (phospho-RSK1(S380)), above 2500 nM.
For the compound `O=C(NC(CO)c1cccc(Cl)c1)c1cn(-c2ccnc(Nc3ccccc3)c2)cn1` (stereo not drawn) [Cmpd 77, N-(1-(3-chloro-phenyl)-2-hydroxy-ethyl)-1-(2-(phenyl-amino)pyridin-4-yl)-1H-imidazole-4-carboxamide], the 50% inhibitory concentration (IC50) in assay [1] is 500 to 2500 nM; in assay [2], above 2500 nM; in assay [3] (phospho-RSK1(S380)), 100 to 250 nM.
Taken in the same sequence, the figures for `Cc1cnc(NC(CO)CO)nc1-n1ccc(C(=O)NC(CO)c2ccccc2)c1` (stereo not drawn) [Example 147, 1-(2-((1,3-dihydroxy-propan-2-yl)amino)-5-methyl-pyrimidin-4-yl)-N-(2-hydroxy-1-phenylethyl)-1H-pyrrole-3-carboxamide] were above 2500 nM, above 2500 nM and above 2500 nM.
In the case of `Cc1cnc(NC2CCOCC2)nc1-n1cnc(C(=O)N[C@H](CNCC(C)(C)C)c2cccc(Cl)c2)c1` [Example 337, (S)-N-(1-(3-chlorophenyl)-2-(neopentylamino)ethyl)-1-(5-methyl-2-((tetrahydro-2H-pyran-4-yl)amino)pyrimidin-4-yl)-1H-imidazole-4-carboxamide], the 50% inhibitory concentration (IC50) was 100 to 250 nM in assay [1], 500 to 2500 nM in assay [2] and 100 to 250 nM in assay [3].
For the compound `Cc1cnc(Nc2cccc3c2OC(F)(F)O3)nc1-n1ccc(C(=O)NC(CO)c2cccc(Cl)c2)c1` (stereo not drawn) [Example 160, N-(1-(3-chloro-phenyl)-2-hydroxy-ethyl)-1-(2-((2,2-difluoro-benzo[d][1,3]dioxol-4-yl)amino)-5-methyl-pyrimidin-4-yl)-1H-pyrrole-3-carboxamide], the IC50 is above 2500 nM in assay [1], above 2500 nM in assay [2] and 500 to 2500 nM in assay [3] (phospho-RSK1(S380)).
On to `Cc1cnc(Nc2ccc3c(c2)OC(F)(F)O3)nc1-n1ccc(C(=O)NC(CO)c2cccc(Cl)c2)c1` (stereo not drawn) [Example 62, N-(1-(3-chloro-phenyl)-2-hydroxy-ethyl)-1-(2-((2,2-difluoro-benzo[d][1,3]dioxol-5-yl)amino)-5-methyl-pyrimidin-4-yl)-1H-pyrrole-3-carboxamide], for which the half-inhibitory concentration (IC50) in assay [1], in assay [2] and in assay [3] (phospho-RSK1(S380)) was 500 to 2500 nM each time.
Regarding `Cc1cnc(Nc2ccc(F)c(N3CCNCC3)c2)nc1-n1ccc(C(=O)NC(CO)c2cccc(Cl)c2)c1` (stereo not drawn) [Example 213, N-(1-(3-chlorophenyl)-2-hydroxyethyl)-1-(2-((4-fluoro-3-(piperazin-1-yl)phenyl)amino)-5-methylpyrimidin-4-yl)-1H-pyrrole-3-carboxamide], the IC50 in assay [1] fell in the range of 100 to 250 nM; in assay [2], 250 to 500 nM; in assay [3] (phospho-RSK1(S380)) it was 250 to 500 nM.
Consider `CCNc1ncc(C)c(-n2ccc(C(=O)NC(CO)c3ccccc3)c2)n1` (stereo not drawn) [Example 130, 1-(2-(ethyl-amino)-5-methyl-pyrimidin-4-yl)-N-(2-hydroxy-1-phenylethyl)-1H-pyrrole-3-carboxamide], for which the figures for the half-maximal inhibitory concentration (IC50) in assay [1], in assay [2] and in assay [3] (phospho-RSK1(S380)) were above 2500 nM, above 2500 nM and 500 to 2500 nM, respectively.
On to `Cc1cnc(Nc2ccc(F)cc2Cl)cc1-n1ccc(C(=O)NC(CO)c2cccc(Cl)c2)c1` (stereo not drawn) [Example 91, 1-(2-((2-chloro-4-fluorophenyl)amino)-5-methyl-pyridin-4-yl)-N-(1-(3-chlorophenyl)-2-hydroxy-ethyl)-1H-pyrrole-3-carboxamide], for which the IC50 in assay [1] was 500 to 2500 nM; in assay [2], above 2500 nM; in assay [3] (phospho-RSK1(S380)) it was 500 to 2500 nM.
Take `COc1cc(Nc2ncc(C)c(-n3ccc(C(=O)NC(CO)c4ccccc4)c3)n2)ccc1F` (stereo not drawn) [Example 154, 1-(2-((4-fluoro-3-methoxy-phenyl)amino)-5-methyl-pyrimidin-4-yl)-N-(2-hydroxy-1-phenylethyl)-1H-pyrrole-3-carboxamide]: the half-inhibitory concentration (IC50) in assay [1] was 500 to 2500 nM; in assay [2] it was 100 to 250 nM; in assay [3] (phospho-RSK1(S380)) it was 250 to 500 nM.
Taken in the same sequence, the figures for `CC[C@@H](CO)Nc1ncc(C)c(-n2ccc(C(=O)N[C@H](CO)c3cccc(Cl)c3)c2)n1` [Example 219, N-((S)-1-(3-chlorophenyl)-2-hydroxyethyl)-1-(2-(((S)-1-hydroxybutan-2-yl)amino)-5-methylpyrimidin-4-yl)-1H-pyrrole-3-carboxamide] were 100 to 250 nM, 500 to 2500 nM and 250 to 500 nM.
Taken in the same sequence, the figures for `Cc1cnc(Nc2ccnn2C)nc1-n1cnc(C(=O)N[C@H](CN)c2cccc(Cl)c2)c1` [Example 280, (S)-N-(2-amino-1-(3-chlorophenyl)ethyl)-1-(5-methyl-2-((1-methyl-1H-pyrazol-5-yl)amino)pyrimidin-4-yl)-1H-imidazole-4-carboxamide] were at most 100 nM, at most 100 nM and at most 100 nM.
Consider `Cc1cnc(NC2CCOCC2)nc1-n1cnc(C(=O)NCc2ccc(Cl)cc2CO)c1` [Example 343, N-(4-chloro-2-hydroxymethylbenzyl)-1-(5-methyl-2-((tetrahydro-2H-pyran-4-yl)amino)-pyrimidin-4-yl)-1H-imidazole-4-carboxamide], for which the IC50 in assay [1] is 250 to 500 nM; in assay [2] it was 250 to 500 nM; in assay [3], 100 to 250 nM.
As for `Cc1cnc(Nc2ccc3c(c2)OCO3)nc1-n1ccc(C(=O)NC(CO)c2cccc(Cl)c2)c1` (stereo not drawn) [Example 42, 1-(2-(benzo[d][1,3]dioxol-5-ylamino)-5-methyl-pyrimidin-4-yl)-N-(1-(3-chloro-phenyl)-2-hydroxy-ethyl)-1H-pyrrole-3-carboxamide], the concentration for half-maximal inhibition (IC50) was 250 to 500 nM in assay [1], 250 to 500 nM in assay [2] and 500 to 2500 nM in assay [3] (phospho-RSK1(S380)).
As for `O=C(NC(CO)c1cccc(Cl)c1)c1cn(-c2ccnc(Nc3ccc4c(c3)CCO4)c2)cn1` (stereo not drawn) [Cmpd 163, N-(1-(3-chloro-phenyl)-2-hydroxy-ethyl)-1-(2-((2,3-dihydro-benzofuran-5-yl)amino)pyridin-4-yl)-1H-imidazole-4-carboxamide], the 50% inhibitory concentration (IC50) is 500 to 2500 nM in assay [1], above 2500 nM in assay [2] and 100 to 250 nM in assay [3] (phospho-RSK1(S380)).
For `COc1cc(C(=O)N2CCOCC2)c(F)cc1Nc1ncc(C)c(-n2ccc(C(=O)NC(CO)c3cccc(Cl)c3)c2)n1` (stereo not drawn) [Example 181, N-(1-(3-chlorophenyl)-2-hydroxyethyl)-1-(2-((5-fluoro-2-methoxy-4-(morpholine-4-carbonyl)phenyl)amino)-5-methylpyrimidin-4-yl)-1H-pyrrole-3-carboxamide] the same measures were above 2500 nM, above 2500 nM and 500 to 2500 nM.
With `Cc1cnc(NC2CCOCC2)nc1-n1cnc(C(=O)N[C@@H](CN)c2cccc(Cl)c2)c1` (single isomer, unassigned) [Compound 225b], the concentration for half-maximal inhibition (IC50) in assay [1] is at most 100 nM; in assay [2], 500 to 2500 nM; in assay [3] (phospho-RSK1(S380)), 100 to 250 nM.
As to `Cc1cnc(NC2CCNC2)nc1-n1ccc(C(=O)N[C@H](CO)c2cccc(Cl)c2)c1` (stereo partly drawn) [Example 174, N-((S)-1-(3-chlorophenyl)-2-hydroxyethyl)-1-(5-methyl-2-(pyrrolidin-3-ylamino)pyrimidin-4-yl)-1H-pyrrole-3-carboxamide], the IC50 in assay [1], in assay [2] and in assay [3] (phospho-RSK1(S380)) was above 2500 nM in each case.
